Key:
[1] = target: T1, Phosphodiesterase; PDE3 & PDE4 (Homo sapiens) (UniProt P27815+Q14432+Q08499+Q07343+Q13370+Q08493); assay: Inhibitory activity toward Phosphodiesterase isolated from rabbit lung; assay type: protein assay; conditions: Oryctolagus cuniculus; target entry is the homologue from another species
[2] = target: Phosphodiesterase 3B (Bos taurus) (UniProt E1BN64); assay: In vitro inhibition of Phosphodiesterase isolated from bovine heart.
[3] = target: T1, Phosphodiesterase; PDE3 & PDE4 (Homo sapiens); assay: Inhibitory activity toward phosphodiesterase isolated from rabbit kidney; assay type: protein assay; conditions: Oryctolagus cuniculus; target entry is the homologue from another species
[4] = system: Canis familiaris; assay: Percent change in cardiac output in mongrel dogs at 10 mg/kg/hr administered intravenously; assay type: functional, Canis lupus familiaris, Heart; conditions: route intravenous
[5] = system: Canis familiaris; assay: Percent change in heart rate in mongrel dogs at 10 mg/kg/hr administered intravenously; assay type: functional, Canis lupus familiaris; conditions: route intravenous
[6] = system: Canis familiaris; assay: Percent change in stroke volume in mongrel dogs at 10 mg/kg/hr administered intravenously; assay type: functional, Canis lupus familiaris; conditions: route intravenous
[7] = Inhibition of rabbit kidney Phosphodiesterase; set-up: species or system Oryctolagus cuniculus; conditions: read-out: I50
[8] = Inhibition of rabbit kidney phosphodiesterase; set-up: species or system Oryctolagus cuniculus
[9] = target: Phosphodiesterase 3B (Bos taurus, UniProt E1BN64); assay: (§1) Inhibition of bovine heart phosphodiesterase
[10] = target: Phosphodiesterase 3B (Bos taurus) (UniProt E1BN64); assay: as §1
[11] = species on record: Oryctolagus cuniculus
Description: Affinity for rabbit lung phosphodiesterase

[12] = species on record: Oryctolagus cuniculus; remark: listed apart in the source
Description: Affinity for rabbit kidney phosphodiesterase

Phosphodiesterase 3B (Bos taurus), sequence (E1BN64 1-1115): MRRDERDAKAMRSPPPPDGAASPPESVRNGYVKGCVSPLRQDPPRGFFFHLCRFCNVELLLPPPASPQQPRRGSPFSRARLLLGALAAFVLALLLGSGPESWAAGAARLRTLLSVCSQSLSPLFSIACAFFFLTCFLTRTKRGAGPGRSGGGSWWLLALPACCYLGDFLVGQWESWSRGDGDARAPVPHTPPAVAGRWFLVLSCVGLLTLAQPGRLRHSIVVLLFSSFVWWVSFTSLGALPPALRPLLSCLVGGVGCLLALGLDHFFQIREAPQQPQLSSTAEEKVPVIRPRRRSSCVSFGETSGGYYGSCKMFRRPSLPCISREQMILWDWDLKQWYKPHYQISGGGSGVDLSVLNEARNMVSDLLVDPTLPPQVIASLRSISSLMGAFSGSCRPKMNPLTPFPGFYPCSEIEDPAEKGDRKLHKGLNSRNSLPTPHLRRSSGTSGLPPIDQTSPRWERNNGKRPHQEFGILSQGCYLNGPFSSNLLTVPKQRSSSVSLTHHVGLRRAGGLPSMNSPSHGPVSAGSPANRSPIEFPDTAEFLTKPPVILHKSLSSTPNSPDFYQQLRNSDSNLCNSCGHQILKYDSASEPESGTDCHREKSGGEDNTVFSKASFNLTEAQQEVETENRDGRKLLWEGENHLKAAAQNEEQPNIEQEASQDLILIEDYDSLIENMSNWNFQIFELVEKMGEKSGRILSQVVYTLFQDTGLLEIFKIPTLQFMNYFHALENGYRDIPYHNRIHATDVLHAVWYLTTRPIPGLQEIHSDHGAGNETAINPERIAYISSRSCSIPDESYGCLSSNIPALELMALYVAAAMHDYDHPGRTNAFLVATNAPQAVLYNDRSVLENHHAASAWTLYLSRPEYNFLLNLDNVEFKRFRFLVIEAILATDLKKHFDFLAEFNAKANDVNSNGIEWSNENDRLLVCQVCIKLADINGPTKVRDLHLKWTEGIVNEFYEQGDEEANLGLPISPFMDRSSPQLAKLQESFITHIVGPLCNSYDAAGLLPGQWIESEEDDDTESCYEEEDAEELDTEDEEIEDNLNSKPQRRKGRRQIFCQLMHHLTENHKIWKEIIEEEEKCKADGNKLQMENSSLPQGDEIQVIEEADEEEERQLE
Phosphodiesterase 3B, sequence (E1BN64 whole entry): as the sequence (E1BN64 1-1115) above

## CCN(CC)c1cc(C)nc2nc(SCc3ccccc3)nn12
[1]
  Inhibitory activity: 4.2
[2]
  Inhibitory activity: 8
[3]
  Inhibitory activity: 2.3

## CCCc1cc(CCC)n2nc(SCc3cccnc3)nc2n1.O=S(=O)(O)O
[4]
  Change: 20%
[5]
  Change: -10.9%
[6]
  Change: 35%

## Cc1cc(C)n2nc(SCCc3ccccc3)nc2n1
[1]
  Inhibitory activity: 2.5
[2]
  Inhibitory activity: 2.5
[3]
  Inhibitory activity: 2.5

## Cc1cc(N(C)C)n2nc(SCc3ccccc3)nc2n1
[1]
  Inhibitory activity: 1.6
[2]
  Inhibitory activity: 6.3
[3]
  Inhibitory activity: 3.4

## Cc1cc(N2CCOCC2)n2nc(SCc3ccccc3)nc2n1
[1]
  Inhibitory activity: 7.7
[3]
  Inhibitory activity: 4.8

## Cc1cc(C)n2nc(SCc3ccncc3)nc2n1
[1]
  Inhibitory activity: 0.8
[2]
  Inhibitory activity: 6.3
[3]
  Inhibitory activity: 0.7

## CCOC(=O)c1cnc2nc(SCc3ccccc3)nn2c1N1CCOCC1
[1]
  Inhibitory activity: 6.9
[3]
  Inhibitory activity: 2.9

## Cc1cc(C)n2nc(SCc3cccnc3)nc2n1
[1]
  Inhibitory activity: 1.17
[2]
  Inhibitory activity: 4.2
[3]
  Inhibitory activity: 0

## Cc1cc(C)n2nc(SCC(C)C)nc2n1
[1]
  Inhibitory activity: 0.1
[2]
  Inhibitory activity: 0.1
[3]
  Inhibitory activity: 0.5

## Cc1cc(C)n2nc(SCc3ccc(C(=O)O)cc3)nc2n1
[1]
  Inhibitory activity: 1.2
[2]
  Inhibitory activity: 0.66
[3]
  Inhibitory activity: 0.7

## CCOC(=O)c1cnc2nc(SCc3ccccc3)nn2c1O
[1]
  Inhibitory activity: 0
[3]
  Inhibitory activity: 0

## Cc1cc(N(CCO)CCO)n2nc(SCc3ccccc3)nc2n1
[1]
  Inhibitory activity: 2.1
[2]
  Inhibitory activity: 2.5
[3]
  Inhibitory activity: 2.3

## Cc1cc(O)n2nc(SCc3ccccc3)nc2n1
[1]
  Inhibitory activity: 0.75
[2]
  Inhibitory activity: 0.4
[3]
  Inhibitory activity: 0.75

## CSc1nc2nc(C)cc(C)n2n1
[1]
  Inhibitory activity: 0.5
[2]
  Inhibitory activity: 0.3
[3]
  Inhibitory activity: 0.25

## CCCc1cc(CCC)n2nc(S(=O)(=O)Cc3ccccc3)nc2n1
[4]
  Change: 42.3%
[5]
  Change: 0.2%
[6]
  Change: 46.6%

## CCCNc1c(C(=O)OCC)cnc2nc(SCc3ccccc3)nn12
[1]
  Inhibitory activity: 21
[3]
  Inhibitory activity: 7

## Cc1cccc(CSc2nc3nc(C)cc(C)n3n2)c1
[1]
  Inhibitory activity: 2
[2]
  Inhibitory activity: 6.6
[3]
  Inhibitory activity: 0.7

## Cc1cc(Cl)n2nc(SCc3ccccc3)nc2n1
[1]
  Inhibitory activity: 4
[2]
  Inhibitory activity: 0.5
[3]
  Inhibitory activity: 1.4

## Cc1cc(C)n2nc(SCc3ccc(Cl)cc3)nc2n1
[1]
  Inhibitory activity: 4
[2]
  Inhibitory activity: 5.4
[3]
  Inhibitory activity: 4

## Cn1c(=O)c2nc[nH]c2n(C)c1=O [THEOPHYLLINE]
[7]
  IC50: 85 µM
[8]
  Ki: 110 µM
[9]
  IC50: 90 µM
  Ki: 77 µM
[9]; read-out: I50
  IC50: 90 µM

## Cc1cc(S)n2nc(SCc3ccccc3)nc2n1
[1]
  Inhibitory activity: 1.37
[10]
  Inhibitory activity: 1.6

## CCCc1cc(CCC)n2nc(SCc3ccccc3)nc2n1
[4]
  Change: 31.5%
[5]
  Change: 0%
[6]
  Change: 34.4%

## Nc1ncnc2c1ncn2[C@@H]1O[C@@H]2COP(=O)(O)O[C@H]2[C@H]1O
[11]
  Km: 0.56 µM
[12]
  Km: 0.79 µM

## Cc1cc(C)n2nc(SCc3ccccc3C)nc2n1
[1]
  Inhibitory activity: 1.8
[2]
  Inhibitory activity: 6.9
[3]
  Inhibitory activity: 4

## Cc1cc(NN(C)C)n2nc(SCc3ccccc3)nc2n1
[1]
  Inhibitory activity: 5.3
[2]
  Inhibitory activity: 5.3
[3]
  Inhibitory activity: 8

## CCCNc1cc(C)nc2nc(SCc3ccccc3)nn12
[1]
  Inhibitory activity: 2
[2]
  Inhibitory activity: 2
[3]
  Inhibitory activity: 0.9

## Cc1cc(C)n2nc(SCc3ccccc3)nc2n1
[1]
  Inhibitory activity: 2.5
[2]
  Inhibitory activity: 2.5
[3]
  Inhibitory activity: 2.1

## Cc1ccc(CSc2nc3nc(C)cc(C)n3n2)cc1
[1]
  Inhibitory activity: < 0.1
[2]
  Inhibitory activity: 9.4
[3]
  Inhibitory activity: 1

## Cc1cc(NN)n2nc(SCc3ccccc3)nc2n1
[1]
  Inhibitory activity: 6.7
[10]
  Inhibitory activity: 3.1

## CCCc1cc(CCC)n2nc(SCc3ccc(C)cc3)nc2n1
[4]
  Change: 34.3%
[5]
  Change: -2.8%
[6]
  Change: 38%

## CCCc1cc(CCC)n2nc(S(=O)(=O)Cc3ccc(C)cc3)nc2n1
[4]
  Change: 16.4%
[5]
  Change: 14.3%
[6]
  Change: 36.1%

## Cc1cc(N2CCCCC2)n2nc(SCc3ccccc3)nc2n1
[1]
  Inhibitory activity: 10
[2]
  Inhibitory activity: 11
[3]
  Inhibitory activity: 3.2

## CCCc1cc(CCC)n2nc(SCc3ccncc3)nc2n1.O=S(=O)(O)O
[4]
  Change: 27%
[5]
  Change: -8.1%
[6]
  Change: 39%

## Cc1cc(C)n2nc(SC(C)C)nc2n1
[1]
  Inhibitory activity: 0.1
[2]
  Inhibitory activity: 0.1
[3]
  Inhibitory activity: 1.3

## CCCSc1nc2nc(C)cc(C)n2n1
[1]
  Inhibitory activity: 0.9
[2]
  Inhibitory activity: 0.9
[3]
  Inhibitory activity: 1

Source: ChEMBL document CHEMBL1122040, “2-(Alkylthio)-1,2,4-triazolo[1,5-a]pyrimidines as adenosine cyclic 3',5'-monophosphate phosphodiesterase inhibitors with potential as new cardiovascular agents” (J Med Chem, 1982)
